Results taken from patent US20150266878A1, “NOVEL BI-RING PHENYL-PYRIDINES/PYRAZINES FOR THE TREATMENT OF CANCER” (HOFFMANN-LA ROCHE INC., priority 2012, published 2015).

Tests used:
CDK8/Cyclin C = molecular target: T1, CDK8/Cyclin C (Homo sapiens, UniProt P49336); test: CDK8/Cyclin C LANCE TR-FRET kinase assay; type: biochemical; details: CDK8/Cyclin C 10 nM, ATP 24 μM, Ulight-GS peptide 80 nM, 37° C. 30 mins
T1 construct: purchased Invitrogen PV4402
Description: CDK8/Cyclin C LANCE TR-FRET Kinase Assay:
The biological activity of the compounds of the invention can be determined using the assay described below.
CDK8/Cyclin C protein was obtained from Invitrogen, cat #PV4402. ULight-Glycogen Synthase (Ulight-GS) peptide with sequence PASVPPSPSLSRHSSPHQ(pS)ED, and Europium-anti-phospho Glycogen Synthase (Ser641) [Eu-anti-P-GS (Ser641)] were obtained from Perkin Elmer, cat #TRF0131-M and cat #TRF0220. Adenosine-5′-triphosphate (ATP) was obtained from Invitrogen, cat #PV3227.
A mixture of (1) a compound of formula I, (2) substrate [Ulight-GS peptide (80 nM) and ATP (24 μM)], and (3) CDK8/Cyclin C (10 nM) in reaction buffer (50 mM Hepes, pH7.0, 10 mM MgCl2, 1 mM EGTA, 0.2 mg/mL BSA, 0.8 mM DTT) were incubated at 37° C. for 30 mins. Then, [Eu-anti-P-GS (Ser641)] (1.5 nM) was added. Following incubation at room temperature for 30 mins, the TR-FRET signals were detected using Envision reader (Ex 340 nm, Em 615 nm and 665 nm) from Perkin Elmer. The reactivity in percentage of inhibition or dose response was analyzed with GraphPad Prism 5 (GraphPad Software).

[1] = test system: SW-837 (colorectal cancer); test: In vitro cell proliferation assay (CCK-8), SW-837; type: cell-based; details: Homo sapiens, SW837, SW-837 cells, 72 hours
Method: (§1) In Vitro Cell Proliferation Assay:
(§2) Cells were seeded on 96-well plates at 5×10^3 cells per well and precultured for 24 hours. The cells were treated with serial diluted compounds and cultured for 72 hours. Then all media was discarded and after that, 100 μL 1:10 (v/v) Cell Counting Kit-8 (CCK-8)-culture media solution was added to the wells. Plate was developed for 2 hours in an incubator, and the absorbance was measured at 450 nm wavelengths with SpectraMAX190 (MDS, Sunnyvale, Calif.). The inhibition rate (IR) of the tested compounds was determined with following formula: IR (%)=(ODDMSO−ODcompound)/ODDMSO×100%. The concentration corresponding to 50% IR (IC50) was determined with plot curve of IR against tested compound concentrations with SoftMax Pro.

[2] = test system: HCT116 (colorectal cancer); test: In vitro cell proliferation assay (CCK-8), HCT116; type: cell-based; details: Homo sapiens, HCT-116, HCT116 cells, 72 hours
Method: as §1, §2

AGS (gastric cancer) = test: In vitro cell proliferation assay (CCK-8), AGS; type: cell-based; details: Homo sapiens, AGS cells, 72 hours
Method: as §1, §2

T1 sequence (P49336 whole entry): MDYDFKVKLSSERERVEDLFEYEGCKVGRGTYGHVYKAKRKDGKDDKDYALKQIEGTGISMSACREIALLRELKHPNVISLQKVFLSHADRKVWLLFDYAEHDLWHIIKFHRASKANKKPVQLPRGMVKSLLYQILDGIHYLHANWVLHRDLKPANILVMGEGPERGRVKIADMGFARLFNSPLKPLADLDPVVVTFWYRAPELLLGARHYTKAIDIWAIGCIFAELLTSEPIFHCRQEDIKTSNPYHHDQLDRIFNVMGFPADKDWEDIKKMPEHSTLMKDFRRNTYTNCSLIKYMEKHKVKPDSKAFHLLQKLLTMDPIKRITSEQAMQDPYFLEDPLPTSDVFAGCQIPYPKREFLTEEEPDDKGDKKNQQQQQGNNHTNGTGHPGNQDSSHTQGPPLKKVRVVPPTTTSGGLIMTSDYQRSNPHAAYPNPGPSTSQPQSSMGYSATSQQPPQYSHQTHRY
T1 sequence (P24863 whole entry partner): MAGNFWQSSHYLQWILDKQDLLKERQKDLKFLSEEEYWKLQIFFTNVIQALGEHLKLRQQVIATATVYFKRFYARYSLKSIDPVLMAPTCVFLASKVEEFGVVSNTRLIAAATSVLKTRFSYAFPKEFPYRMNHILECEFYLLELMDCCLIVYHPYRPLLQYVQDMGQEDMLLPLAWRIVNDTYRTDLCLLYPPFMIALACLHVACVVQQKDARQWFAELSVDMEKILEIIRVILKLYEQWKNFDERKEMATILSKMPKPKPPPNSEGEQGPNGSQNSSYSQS

Row | Structure (SMILES) | IC50 (CDK8/Cyclin C) [nM] | other results
1 | O=C1Cc2cc(-c3cncc(N[C@@H](CO)c4ccccc4)c3)ccc2N1 [Example 1, 5-[5-((R)-2-Hydroxy-1-phenyl-ethylamino)-pyridin-3-yl]-1,3-dihydro-indol-2-one] | 3.5 | IC50 [1]: 2.3 µM; IC50 [2]: 0.66 µM; IC50 (AGS (gastric cancer)): 0.65 µM
2 | OC[C@H](Nc1cncc(-c2ccc3[nH]ncc3c2)c1)c1ccccc1 [Example 16, (R)-2-[5-(1H-Indazol-5-yl)-pyridin-3-ylamino]-2-phenyl-ethanol] | 0.2 | IC50 [1]: 0.091 µM; IC50 [2]: 0.037 µM; IC50 (AGS (gastric cancer)): 0.033 µM
3 | NC(=O)C(Nc1cncc(-c2cc3c(cc2F)NC(=O)CC3)c1)c1ccccc1 (centres unmarked) [Example 34, 2-[5-(7-Fluoro-2-oxo-1,2,3,4-tetrahydro-quinolin-6-yl)-pyridin-3-ylamino]-2-phenyl-acetamide] | 1400 | –
4 | NC(=O)C(Nc1cncc(-c2ccc3c(c2)OCO3)c1)c1ccccc1 (centres unmarked) [Example 35, 2-(5-Benzo[1,3]dioxol-5-yl-pyridin-3-ylamino)-2-phenyl-acetamide] | 559 | –
5 | NC(=O)C(Nc1cncc(-c2ccc3c(c2)OCCO3)c1)c1ccccc1 (centres unmarked) [Example 36, 2-[5-(2,3-Dihydro-benzo[1,4]dioxin-6-yl)-pyridin-3-ylamino]-2-phenyl-acetamide] | 2510 | –
6 | NC(=O)C(Nc1cncc(-c2ccc3[nH]ncc3c2)c1)c1ccccc1 (centres unmarked) [Example 37, 2-[5-(1H-Indazol-5-yl)-pyridin-3-ylamino]-2-phenyl-acetamide] | 3.4 | –
7 | NC(=O)[C@H](Nc1cncc(-c2ccc3[nH]ncc3c2)c1)c1ccccc1 [Example 38, (R)-2-[5-(1H-Indazol-5-yl)-pyridin-3-ylamino]-2-phenyl-acetamide] | 0.9 | –
8 | NC(=O)[C@@H](Nc1cncc(-c2ccc3[nH]ncc3c2)c1)c1ccccc1 [Example 39, (S)-2-[5-(1H-indazol-5-yl)-pyridin-3-ylamino]-2-phenyl-acetamide] | 8.8 | –
9 | CC(=O)NC[C@H](Nc1cncc(-c2ccc3[nH]ncc3c2)c1)c1ccccc1 [Example 40, N-{(R)-2-[5-(1H-Indazol-5-yl)-pyridin-3-ylamino]-2-phenyl-ethyl}-acetamide] | 1.8 | –
10 | CS(=O)(=O)NC[C@H](Nc1cncc(-c2ccc3[nH]ncc3c2)c1)c1ccccc1 [Example 41, N-{(R)-2-[5-(1H-Indazol-5-yl)-pyridin-3-ylamino]-2-phenyl-ethyl}-methanesulfonamide] | 0.3 | –
11 | NC(=O)C(Nc1cncc(-c2ccc3[nH]nc(F)c3c2)c1)c1ccccc1 (centres unmarked) [Example 42, 2-[5-(3-Fluoro-1H-indazol-5-yl)-pyridin-3-ylamino]-2-phenyl-acetamide] | 3.5 | –
12 | CCC(=O)NC[C@H](Nc1cncc(-c2ccc3[nH]nc(F)c3c2)c1)c1ccccc1 [Example 43, N-{(R)-2-[5-(3-Fluoro-1H-indazol-5-yl)-pyridin-3-ylamino]-2-phenyl-ethyl}-propionamide] | 2.3 | –
13 | CC(C)C(=O)NC[C@H](Nc1cncc(-c2ccc3[nH]nc(F)c3c2)c1)c1ccccc1 [Example 44, N-{(R)-2-[5-(3-Fluoro-1H-indazol-5-yl)-pyridin-3-ylamino]-2-phenyl-ethyl}-isobutyramide] | 3.1 | –
14 | COCCNC[C@H](Nc1cncc(-c2ccc3[nH]nc(F)c3c2)c1)c1ccccc1 [Example 45, (R)-N^1-[5-(3-Fluoro-1H-indazol-5-yl)-pyridin-3-yl]-N^2-(2-methoxy-ethyl)-1-phenyl-ethane-1,2-diamine] | 29.5 | –
15 | O=C(CO)NC[C@H](Nc1cncc(-c2ccc3[nH]nc(F)c3c2)c1)c1ccccc1 [Example 46, N-{(R)-2-[5-(3-Fluoro-1H-indazol-5-yl)-pyridin-3-ylamino]-2-phenyl-ethyl}-2-hydroxy-acetamide] | 2.4 | –
16 | OCCNC[C@H](Nc1cncc(-c2ccc3[nH]nc(F)c3c2)c1)c1ccccc1 [Example 47, 2-{(R)-2-[5-(3-Fluoro-1H-indazol-5-yl)-pyridin-3-ylamino]-2-phenyl-ethylamino}-ethanol] | 15 | –
17 | Cc1n[nH]c2ccc(-c3cncc(N[C@@H](C(N)=O)c4ccccc4)c3)cc12 [Example 48, (R)-2-[5-(3-Methyl-1H-indazol-5-yl)-pyridin-3-ylamino]-2-phenyl-acetamide] | 1.6 | –
18 | Cc1n[nH]c2ccc(-c3cncc(N[C@H](C(N)=O)c4ccccc4)c3)cc12 [Example 49, (S)-2-[5-(3-Methyl-1H-indazol-5-yl)-pyridin-3-ylamino]-2-phenyl-acetamide] | 4.2 | –
19 | Cc1n[nH]c2ccc(-c3cncc(NC(CNS(C)(=O)=O)c4ccccc4)c3)cc12 (centres unmarked) [Example 50, N-{2-[5-(3-Methyl-1H-indazol-5-yl)-pyridin-3-ylamino]-2-phenyl-ethyl}-methanesulfonamide] | 2.8 | –
20 | Cc1n[nH]c2ccc(-c3cncc(N[C@@H](CNS(=O)(=O)C4CC4)c4ccccc4)c3)cc12 [Example 51, Cyclopropanesulfonic acid {(R)-2-[5-(3-methyl-1H-indazol-5-yl)-pyridin-3-ylamino]-2-phenyl-ethyl}-amide] | 2.1 | –
21 | Cc1n[nH]c2ccc(-c3cncc(N[C@@H](CNS(C)(=O)=O)c4ccccc4)c3)cc12 [Example 52, N-{(R)-2-[5-(3-Methyl-1H-indazol-5-yl)-pyridin-3-ylamino]-2-phenyl-ethyl}-methanesulfonamide] | 0.8 | –
22 | COCCS(=O)(=O)NC[C@H](Nc1cncc(-c2ccc3[nH]nc(C)c3c2)c1)c1ccccc1 [Example 53, 2-Methoxy-ethanesulfonic acid {(R)-2-[5-(3-methyl-1H-indazol-5-yl)-pyridin-3-ylamino]-2-phenyl-ethyl}-amide] | 1.7 | –
23 | Cc1n[nH]c2ccc(-c3cncc(N[C@@H](CNC(=O)CO)c4ccccc4)c3)cc12 [Example 54, 2-Hydroxy-N-{(R)-2-[5-(3-methyl-1H-indazol-5-yl)-pyridin-3-ylamino]-2-phenyl-ethyl}-acetamide] | 1.2 | –
24 | COCCNC[C@H](Nc1cncc(-c2ccc3[nH]nc(C)c3c2)c1)c1ccccc1 [Example 55, (R)-N^2-(2-Methoxy-ethyl)-N^1-[5-(3-methyl-1H-indazol-5-yl)-pyridin-3-yl]-1-phenyl-ethane-1,2-diamine] | 9.5 | –
25 | Cc1n[nH]c2ccc(-c3cncc(N[C@@H](CNCCO)c4ccccc4)c3)cc12 [Example 56, 2-{(R)-2-[5-(3-Methyl-1H-indazol-5-yl)-pyridin-3-ylamino]-2-phenyl-ethylamino}-ethanol] | 5 | –
26 | Cc1n[nH]c2ccc(-c3cncc(N[C@@H](CNC(=O)C4CCCCC4)c4ccccc4)c3)cc12 [Example 57, Cyclohexanecarboxylic acid {(R)-2-[5-(3-methyl-1H-indazol-5-yl)-pyridin-3-ylamino]-2-phenyl-ethyl}-amide] | 5.3 | –
27 | Cc1n[nH]c2ccc(-c3cncc(N[C@@H](CNC(=O)c4ccccc4)c4ccccc4)c3)cc12 [Example 58, N-{(R)-2-[5-(3-Methyl-1H-indazol-5-yl)-pyridin-3-ylamino]-2-phenyl-ethyl}-benzamide] | 6 | –
28 | NC(=O)[C@H](Nc1cncc(-c2ccc3[nH]nc(Cl)c3c2)c1)c1ccccc1 [Example 59, (R)-2-[5-(3-Chloro-1H-indazol-5-yl)-pyridin-3-ylamino]-2-phenyl-acetamide] | 2.3 | –
29 | NC(=O)[C@@H](Nc1cncc(-c2ccc3[nH]nc(Cl)c3c2)c1)c1ccccc1 [Example 60, (S)-2-[5-(3-Chloro-1H-indazol-5-yl)-pyridin-3-ylamino]-2-phenyl-acetamide] | 9.2 | –
